What follows are compounds tested against T1, angiotensin II receptor (Rattus norvegicus, UniProt P25095) (assay: Inhibition of binding of angiotensin II to rat smooth muscle cells (125I-Tyr4-angiotensin II)). Conditions: 125I-AII; rat aorta-derived smooth muscle cells; room temperature, one hour; read-out: IC50, inhibitory activity to the binding of angiotensin II to its receptor.
T1 sequence (P25095 1-359): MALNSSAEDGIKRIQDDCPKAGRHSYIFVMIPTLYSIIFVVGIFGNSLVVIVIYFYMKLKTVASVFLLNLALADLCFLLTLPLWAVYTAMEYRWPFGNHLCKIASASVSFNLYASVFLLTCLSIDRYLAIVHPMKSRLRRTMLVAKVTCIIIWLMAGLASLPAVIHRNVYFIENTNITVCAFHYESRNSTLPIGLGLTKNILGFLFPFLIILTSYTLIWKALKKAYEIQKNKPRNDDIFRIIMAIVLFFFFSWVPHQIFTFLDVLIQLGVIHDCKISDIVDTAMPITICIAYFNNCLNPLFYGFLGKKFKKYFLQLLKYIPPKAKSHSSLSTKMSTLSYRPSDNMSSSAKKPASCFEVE

IC50	SMILES
0.94 nM	CCc1nc2c(C)cc(C)nc2n1Cc1ccc2nc(-c3ccccc3-c3nnn[nH]3)ccc2c1 [Example 15, 2-ethyl-5,7-dimethyl-3-{[2-[2-(1H-tetrazol-5-yl)phenyl]quinolin-6-yl]methyl}-3H-imidazo[4,5-b]pyridine]
440 nM	CCc1nc2c(C)cc(C)nc2n1Cc1ccc2nc(-c3ccccc3C(=O)OC)ccc2c1 [Example 12, methyl 2-{6-[(2-ethyl-5,7-dimethyl-3H-imidazo-[4,5-b]pyridin-3-yl)methyl]quinolin-2-yl}benzoate]
7.7 nM	CCc1nc2c(C)cc(C)nc2n1Cc1ccc2nc(-c3ccccc3-c3nnn[nH]3)cc(Cl)c2c1 [Example 21, 2-ethyl-5,7-dimethyl-3-{[4-chloro-2-[2-(1H-tetrazol-5-yl)phenyl]quinolin-6-yl]methyl}-3H-imidazo[4,5-b]pyridine]
11 nM	CCCCc1nc2cccnc2n1Cc1ccc2nc(-c3ccccc3C(=O)O)ccc2c1 [Example 17]

The next lines start with the compound.

SMILES	IC50
CCCCc1nc(Cl)c(CO)n1Cc1ccc2nc(-c3ccccc3C(=O)O)ccc2c1	0.92 nM
CCCCc1nc(Cl)c(CO)n1Cc1ccc2nc(-c3ccccc3-c3nnn[nH]3)ccc2c1 [Example 11, {2-butyl-4-chloro-1-{[2-[2-(1H-tetrazol-5-yl)phenyl]quinolin-6-yl]methyl}-1H-imidazol-5-yl}methanol]	2.5 nM
CCc1nc2c(C)cc(C)nc2n1Cc1ccc2nc(-c3ccccc3C(=O)O)ccc2c1	6.4 nM
CCCCc1nc(Cl)c(C=O)n1Cc1ccc2nc(-c3ccccc3C(=O)O)ccc2c1	50 nM

Source: patent US5478832A, “Quinoline compounds” (The Green Cross Corporation, priority 1992, dated 1995)
